Measurements from paper PMC6359713, “A Novel Dipeptidyl Peptidase IV Inhibitory Tea Peptide Improves Pancreatic β-Cell Function and Reduces α-Cell Proliferation in Streptozotocin-Induced Diabetic Mice” (International Journal of Molecular Sciences, 2019).
“Also recorded” adds a separate entry of the source.

Experiments:
DPP-IV [1] = biological target: T1, DPP-IV (Homo sapiens, UniProt P27487); assay: DPP-IV inhibitory assay (Gly-Pro p-nitroanilide); type: biochemical; conditions: n = 3; for DPP-IV inhibition, comparison among peptides I-IV: 62.5-1500 μg/mL
T1 construct: purchased Sigma-Aldrich D4943-1VL; host or cells: baculovirus-infected Sf9 insect cells
T1 sequence (P27487 whole entry): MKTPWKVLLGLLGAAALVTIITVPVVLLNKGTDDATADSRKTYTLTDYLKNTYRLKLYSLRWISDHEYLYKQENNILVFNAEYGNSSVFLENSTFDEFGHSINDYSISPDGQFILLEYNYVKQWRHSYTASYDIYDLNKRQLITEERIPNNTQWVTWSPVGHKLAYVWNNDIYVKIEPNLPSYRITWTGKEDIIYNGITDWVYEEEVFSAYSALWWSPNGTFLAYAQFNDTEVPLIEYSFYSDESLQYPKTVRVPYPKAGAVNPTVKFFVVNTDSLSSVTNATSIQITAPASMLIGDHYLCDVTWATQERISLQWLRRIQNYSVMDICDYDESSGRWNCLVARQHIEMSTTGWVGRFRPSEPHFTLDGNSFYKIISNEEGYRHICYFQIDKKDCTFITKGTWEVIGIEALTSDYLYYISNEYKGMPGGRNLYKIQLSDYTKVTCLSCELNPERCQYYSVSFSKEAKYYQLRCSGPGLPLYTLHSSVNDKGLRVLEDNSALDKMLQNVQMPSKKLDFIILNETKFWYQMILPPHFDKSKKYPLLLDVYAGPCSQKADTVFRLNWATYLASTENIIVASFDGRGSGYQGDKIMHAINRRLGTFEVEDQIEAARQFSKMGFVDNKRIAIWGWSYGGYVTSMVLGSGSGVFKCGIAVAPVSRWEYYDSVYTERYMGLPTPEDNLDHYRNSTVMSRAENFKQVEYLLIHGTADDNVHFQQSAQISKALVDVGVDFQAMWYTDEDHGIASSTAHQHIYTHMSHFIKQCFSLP
Text: The enzyme, human recombinant DPP-IV (Lot: D4943-1VL), expressed in baculovirus-infected S/9 cells, the substrate, Gly-Pro p-nitroanilide (Gly-Pro pNA; Lot: G0513), and streptozotocin (STZ; Lot: V900890) were purchased from Sigma-Aldrich (St. Louis, MO, USA). […] Other reagents, such as Folin–Ciocalteu (Lot: 73104861), gallic acid (Lot: XW01499171), and Coomassie Blue R-250 (Lot: 71011381) were purchased from Sinopharm Chemical Reagent Co., Ltd. (Shanghai, China). Lapsang souchon (LS), a typical Chinese black tea, was obtained from a tea market in Hangzhou.
The DPP-IV inhibitory activities of the substance after ultrafiltration and the peptides identified (synthesized by Chinese Peptide Company, Hangzhou, China; purity of 96–97%) were evaluated. The DPP-IV inhibition assay was performed as described by Velarde-Salcedo et al., with slight modifications. The assay was performed in 96-well microplates, and 100 μL of enzyme (final concentration 1.9 U/L) was preincubated with the samples (the concentrated ultra-filtrate mentioned above and the synthesized peptide, with concentrations from 62.5–1500 μg/mL) at 37 °C for 15 min prior to the initiation of the reaction, by adding 50 μL of Gly-Pro p-nitroanilide (final concentration 0.29 mM). The final volume of the reaction system was 200 μL, and the reaction was conducted in 100 mM Tris-HCl buffer (pH 7.6). The absorbance was obtained at 405 nm in a microplate reader (Synergy H1, BioTek Instruments Inc., Winooski, VT, USA), after incubation at 37 °C for 1 h.

[2] = Plasma insulin in STZ-induced hyperglycemic mice; type: in vivo, mouse (male ICR); conditions: for Blood insulin level: peptide II 400 mg/kg (n = 7) or sitagliptin 4 mg/kg (n = 6), mouse ELISA, STZ control 9.79 ± 3.62 mU/L, mean ± SD
Method: (§1) Male ICR mice at the age of four weeks were obtained from the Laboratory Animal Center of Zhejiang University (Hangzhou, China) and housed under a 12 h light/dark cycle with free access to food and water. The animal protocol was approved by the Committee on the Ethics of Animal Experiments of Zhejiang University (Permit Number: SYXK 2018-0001, 3 January 2018), and all experiments were performed in accordance with Zhejiang University Laboratory Animal Center Guidelines and the Regulations for Laboratory Animals Care and Usage. The mice were divided into four groups: non-STZ, STZ, STZ plus sitagliptin, and STZ plus peptide II. The mice were injected with STZ (50 mg/kg) dissolved into sodium citrate buffer (pH 4.5) for three successive days to induce hyperglycemia. Every group contained 10 mice. […] The levels of HbA1c were measured using an automatic analyzer MQ-2000pt produced by Medconn Medical Technology Co. (Shanghai, China). Plasma insulin, glucagon, GLP-1, and DPP-IV concentrations were measured using a mouse ELISA kit (Shanghai Lengton Bioscience Co., Ltd., Shanghai, China).

pancreatic beta-cells = assay: Islet beta-cell (insulin-positive) area and function in STZ-treated mice, immunohistochemistry; type: in vivo, mouse (male ICR); conditions: gavage daily; for Beta-cell area: peptide II 400 mg/kg (n = 7) or sitagliptin 4 mg/kg (n = 6), day 57, insulin-positive area per islet area
Method: as §1, with “pancreases” for “levels of HbA1c”, “resected immediately after the mice were sacrificed and fixed in 4% (w/v) formaldehyde. The immunohistochemistry procedures were performed according to Y. Takeda et al.. The stained sections were observed by an inverted fluorescence microscopy (NIKON ECLIPSE TI-SR; Nikon Corporation, Tokyo, Japan), and digital images were collected” for “measured”, “Nikon imaging system (NIKON DS-U3).” for “an automatic analyzer MQ-2000pt produced by Medconn Medical Technology Co. (Shanghai, China). Plasma insulin, glucagon, GLP-1, and DPP-IV concentrations were measured using a mouse ELISA kit (Shanghai Lengton Bioscience Co., Ltd., Shanghai, China).”

[3] = HbA1c in STZ-induced hyperglycemic mice; type: in vivo, mouse (male ICR); conditions: gavage daily, 57 days
Method: as §1

[4] = Plasma glucagon in STZ-induced hyperglycemic mice; type: in vivo, mouse (male ICR); conditions: peptide II 400 mg/kg or sitagliptin 4 mg/kg, gavage daily, day 57, vs STZ control
Method: as §1

[5] = Blood GLP-1 in STZ-induced hyperglycemic mice; type: in vivo, mouse (male ICR); conditions: gavage daily; for GLP-1 concentration vs STZ control, significance / GLP-1 concentration in blood: day 57; for GLP-1 concentration in blood: peptide II 400 mg/kg (n = 7) or sitagliptin 4 mg/kg (n = 6), mouse ELISA, STZ control 9.85 ± 1.96, normal control 15.52 ± 3.17 pmol/L, mean ± SD; for Increase in GLP-1 concentration vs STZ control: peptide II 400 mg/kg or sitagliptin 4 mg/kg, after 57 days
Method: as §1

pancreatic alpha-cells = assay: Islet alpha-cell (glucagon-positive) area in STZ-treated mice, immunohistochemistry; type: in vivo, mouse (male ICR); conditions: gavage daily; for Alpha-cell area / proliferation: peptide II 400 mg/kg (n = 7) or sitagliptin 4 mg/kg (n = 6), day 57, vs STZ control
Method: as §1, with “pancreases” for “levels of HbA1c”, “resected immediately after the mice were sacrificed and fixed in 4% (w/v) formaldehyde. The immunohistochemistry procedures were performed according to Y. Takeda et al.. The stained sections were observed by an inverted fluorescence microscopy (NIKON ECLIPSE TI-SR; Nikon Corporation, Tokyo, Japan), and digital images were collected” for “measured”, “Nikon imaging system (NIKON DS-U3).” for “an automatic analyzer MQ-2000pt produced by Medconn Medical Technology Co. (Shanghai, China). Plasma insulin, glucagon, GLP-1, and DPP-IV concentrations were measured using a mouse ELISA kit (Shanghai Lengton Bioscience Co., Ltd., Shanghai, China).”

DPP-IV [6] = biological target: T1, DPP-IV; assay: Enzyme kinetics, Lineweaver-Burk plot, mode of inhibition; type: biochemical; conditions: peptide II 0, 1.02 and 2.04 mM; Gly-Pro pNA 0.29-4.64 mM; Tris-HCl pH 7.6, 37 °C, 60 min, 405 nm
Method: The initial rate of hydrolysis of the substrate Gly-Pro p-nitroanilide by DPP-IV was measured using substrate concentrations of 0.29, 0.58, 1.16, 2.32, and 4.64 mM (final assay concentrations) in the absence (100 mM Tris-HCl buffer, pH 7.6) and presence of different concentrations of the peptide II (1.02 and 2.04 mM, respectively). The substrate (50 μL), with or without an inhibitor (50 μL), was pre-incubated at 37 °C for 15 min, and the reaction was started by the addition of 100 μL of the DPP-IV enzyme (final concentration: 1.9 U/L). The absorbance of the released p-nitroanilide was monitored at 37 °C and 405 nm for 60 min using a microplate reader (Synergy H1, BioTek Instruments Inc.). Lineweaver–Burk plots of DPP-IV activity in the absence and presence of peptide II were created to show the modes of inhibition.

For IQDKEGIPPDQQR [IV], the “DPP-IV inhibition, comparison among peptides I-IV” value (DPP-IV [1]) was “surpassed by peptide II with increasing concentration”.
In the case of QTDEYGNPPR [Peptide I], the “DPP-IV inhibition, comparison among peptides I-IV” value (DPP-IV [1]) is reported as “lower than peptide IV, but higher than peptide III”.
For `N[C@@H](CC(=O)N1CCn2c(nnc2C(F)(F)F)C1)Cc1cc(F)c(F)cc1F` [sitagliptin, reference compound], the Blood insulin level ([2]; gavage daily, day 57) was 27.35 ± 5.65 mU/L, the “Beta-cell area” value (pancreatic beta-cells) was “not obvious” and the HbA1c level ([3]; sitagliptin 4 mg/kg, n = 6, STZ control 7.30 ± 0.70%, mean ± SD) was 5.98 ± 1.63%. For the same compound, the “Plasma glucagon levels” value [4] was “no amelioration of the glucagon levels”, the “GLP-1 concentration vs STZ control, significance” value [5] was “without any significant difference compared with the STZ control” and the “GLP-1 concentration in blood” value [5] was 12.57 ± 3.38 pmol/L. The “Increase in GLP-1 concentration vs STZ control” value [5] was 2.7 pmol/L, the “Alpha-cell area / proliferation” value (pancreatic alpha-cells) was “suppressed” and the “Decrease of alpha-cell area vs STZ-treated mice” value (pancreatic alpha-cells; sitagliptin 4 mg/kg, day 57, glucagon-positive area per islet area, n = 6) was 37.8%.
In the case of AGFAGDDAPR [Peptide II], the Blood insulin level ([2]; gavage daily, day 57) is reported as 42.30 ± 12.64 mU/L, the “Increase of plasma insulin level vs STZ control” value ([2]; peptide II 400 mg/kg or sitagliptin 4 mg/kg, gavage daily, 57 days) is reported as 4.3 fold and the “Insulin improvement compared with sitagliptin” value ([2]; peptide II 400 mg/kg vs sitagliptin 4 mg/kg, day 57) is reported as “improved the insulin levels more effectively than sitagliptin”. The “Beta-cell area” value (pancreatic beta-cells) was “not obvious”, the “Beta-cell proliferation / function” value (pancreatic beta-cells; peptide II 400 mg/kg, 57 days) was “improved function of pancreatic beta-cells; also recorded: only slight proliferation” and the “HbA1c level vs STZ control” value ([3]; peptide II 400 mg/kg, n = 7) was “did not show a significant difference in HbA1c levels compared to STZ control animals”. The “Mode of DPP-IV inhibition” value (DPP-IV [6]) was “competitive inhibitory mode”, the “Plasma glucagon levels” value [4] was “no amelioration of the glucagon levels” and the “DPP-IV enzyme activity inhibited” value (DPP-IV [1]; 1000 μg/mL synthesized peptide, Tris-HCl pH 7.6, 37 °C, preincubation 15 min, 1 h, 405 nm) was about 50%. The “DPP-IV inhibition, comparison among peptides I-IV” value (DPP-IV [1]) was “much higher inhibitory activity at both low and high concentrations; also recorded: the greatest DPP-IV inhibitory activity”, the “GLP-1 concentration vs STZ control, significance” value [5] was “significantly higher than that in STZ control” and the “GLP-1 concentration in blood” value [5] was 19.22 ± 6.79 pmol/L. The “Increase in GLP-1 concentration vs STZ control” value [5] was 9.3 pmol/L and the “Alpha-cell area / proliferation” value (pancreatic alpha-cells) was “suppressed proliferation of pancreatic alpha-cells; also recorded: lower than that in the STZ control group, but not significantly”.
In the case of IDESLR [Peptide III], the “DPP-IV inhibition” value (DPP-IV [1]; 1500 μg/mL, compared among peptides I-IV) is reported as “the lowest activity” and the “DPP-IV inhibition” value (DPP-IV [1]; concentration below 1000 μg/mL) is reported as “almost no inhibition”.
